# What was measured:
# [1] = target: T1, Carbonic anhydrase 2 (Homo sapiens, UniProt P00918)
# [2] = test system: HSC-4; experiment: cells; assay type: functional; settings: Homo sapiens, time 48 hrs
# Description: Cytotoxicity against human HSC-4 cells assessed as cell growth inhibition measured after 48 hrs by MTT assay
# [3] = test system: HSC-3; experiment: cells; assay type: functional; settings: Homo sapiens, time 48 hrs
# Description: Cytotoxicity against human HSC-3 cells assessed as cell growth inhibition measured after 48 hrs by MTT assay
# [4] = test system: HSC-2; experiment: cells; assay type: functional; settings: Homo sapiens, time 48 hrs
# Description: Cytotoxicity against human HSC-2 cells assessed as cell growth inhibition measured after 48 hrs by MTT assay
# [5] = test system: Ca9-22; experiment: cells; assay type: functional; settings: Homo sapiens, time 48 hrs
# Description: Cytotoxicity against human Ca9-22 cells assessed as cell growth inhibition measured after 48 hrs by MTT assay
# [6] = target: T2, Carbonic anhydrase 9 (Homo sapiens, UniProt Q16790)
# [7] = target: T1, Carbonic anhydrase 2; remark: listed apart in the source
# [8] = target: T2, Carbonic anhydrase 9; remark: listed apart in the source
# [9] = target: Carbonic anhydrase 7 (Homo sapiens, UniProt P43166)
# Sequence of Carbonic anhydrase 7 (P43166 whole entry): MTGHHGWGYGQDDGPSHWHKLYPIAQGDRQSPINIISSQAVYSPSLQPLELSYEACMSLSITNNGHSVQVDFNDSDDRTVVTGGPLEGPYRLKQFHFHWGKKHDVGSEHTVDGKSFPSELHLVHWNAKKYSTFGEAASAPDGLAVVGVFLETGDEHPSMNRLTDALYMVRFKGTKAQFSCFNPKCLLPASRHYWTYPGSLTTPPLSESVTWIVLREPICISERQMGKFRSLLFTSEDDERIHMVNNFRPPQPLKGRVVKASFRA
# [10] = target: T2, Carbonic anhydrase 9; remark: listed apart in the source
# [11] = target: T3, Carbonic anhydrase 12 (Homo sapiens, UniProt O43570)
# T3 sequence (O43570 whole entry): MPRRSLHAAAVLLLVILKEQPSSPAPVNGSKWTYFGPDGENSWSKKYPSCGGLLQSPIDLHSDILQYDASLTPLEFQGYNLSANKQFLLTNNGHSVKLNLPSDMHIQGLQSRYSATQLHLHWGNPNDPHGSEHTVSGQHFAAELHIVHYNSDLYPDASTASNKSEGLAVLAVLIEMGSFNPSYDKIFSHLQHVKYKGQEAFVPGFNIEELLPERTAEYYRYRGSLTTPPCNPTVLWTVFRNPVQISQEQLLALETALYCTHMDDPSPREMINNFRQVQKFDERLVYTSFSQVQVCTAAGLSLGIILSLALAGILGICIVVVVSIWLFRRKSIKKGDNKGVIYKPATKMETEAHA
# [12] = target: T4, Carbonic anhydrase 1 (Homo sapiens, UniProt P00915)
# Target sequence in this assay (P00915 whole entry): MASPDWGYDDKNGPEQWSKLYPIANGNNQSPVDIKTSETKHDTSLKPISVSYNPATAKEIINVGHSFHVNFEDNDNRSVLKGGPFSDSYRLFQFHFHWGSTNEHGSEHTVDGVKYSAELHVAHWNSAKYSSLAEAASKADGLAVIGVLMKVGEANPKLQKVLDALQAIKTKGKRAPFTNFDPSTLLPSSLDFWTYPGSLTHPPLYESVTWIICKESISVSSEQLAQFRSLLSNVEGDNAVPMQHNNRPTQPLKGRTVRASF
# [13] = target: T4, Carbonic anhydrase 1; remark: listed apart in the source
# Target sequence in this assay (P00915 2-261 limits assumed): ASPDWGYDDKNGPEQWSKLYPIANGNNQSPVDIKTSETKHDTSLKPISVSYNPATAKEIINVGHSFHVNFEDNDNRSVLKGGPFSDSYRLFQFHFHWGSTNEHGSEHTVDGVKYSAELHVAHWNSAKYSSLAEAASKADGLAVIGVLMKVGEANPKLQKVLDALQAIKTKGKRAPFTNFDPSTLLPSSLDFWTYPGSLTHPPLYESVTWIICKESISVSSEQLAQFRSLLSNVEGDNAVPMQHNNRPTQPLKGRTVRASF
# [14] = target: T4, Carbonic anhydrase 1; remark: listed apart in the source
# Target sequence in this assay (P00915 whole entry): as the sequence (P00915 whole entry) above
# [15] = target: T1, Carbonic anhydrase 2; remark: listed apart in the source
# [16] = target: T4, Carbonic anhydrase 1; remark: listed apart in the source
# Target sequence in this assay (P00915 whole entry): as above
# [17] = target: T1, Carbonic anhydrase 2; remark: listed apart in the source
# [18] = target: T1, Carbonic anhydrase 2; remark: listed apart in the source
# [19] = target: T4, Carbonic anhydrase 1; remark: listed apart in the source
# Target sequence in this assay (P00915 whole entry): as above
# [20] = target: Carbonic anhydrase 4 (Homo sapiens, UniProt P22748)
# Sequence of Carbonic anhydrase 4 (P22748 whole entry): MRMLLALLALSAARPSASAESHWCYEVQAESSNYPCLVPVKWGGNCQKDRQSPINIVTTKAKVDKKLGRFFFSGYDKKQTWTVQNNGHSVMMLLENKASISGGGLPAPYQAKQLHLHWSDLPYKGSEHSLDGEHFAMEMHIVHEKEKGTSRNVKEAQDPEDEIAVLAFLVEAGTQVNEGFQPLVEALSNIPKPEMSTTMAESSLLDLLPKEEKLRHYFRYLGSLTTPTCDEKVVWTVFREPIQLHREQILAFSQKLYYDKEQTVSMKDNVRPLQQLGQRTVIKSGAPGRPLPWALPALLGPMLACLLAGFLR
# [21] = target: T1, Carbonic anhydrase 2; remark: listed apart in the source
# [22] = target: T3, Carbonic anhydrase 12; remark: listed apart in the source
# [23] = target: T3, Carbonic anhydrase 12; remark: listed apart in the source
# [24] = target: T2, Carbonic anhydrase 9; remark: listed apart in the source
# [25] = target: T3, Carbonic anhydrase 12; remark: listed apart in the source
# [26] = target: T4, Carbonic anhydrase 1; remark: listed apart in the source
# Target sequence in this assay (P00915 whole entry): as the sequence (P00915 whole entry) above
# [27] = target: T1, Carbonic anhydrase 2; remark: listed apart in the source
smiles,measurement,setting,value
COc1ccccc1N1CCN(Cc2cc(/C=C3/Cc4ccccc4C3=O)ccc2O)CC1,Ki,[1],51.1 nM
COc1ccc(C2CC(c3ccc(Cl)cc3)=NN2c2ccc(S(N)(=O)=O)cc2)cc1OC (centres undefined),CC50,[2],15000 nM
same,CC50,[3],15000 nM
same,CC50,[4],15000 nM
same,CC50,[5],15000 nM
NS(=O)(=O)c1ccc(C(=O)NN2C(=O)c3ccccc3C2=O)cc1,Kis,[6],3 nM
NS(=O)(=O)c1ccc(C(=O)N[C@@H]2O[C@H](CO)[C@@H](O)[C@H](O)[C@H]2O)cc1,Ki,[7],0.009 nM
Cc1ccc([SeH])cc1,Ki,[8],180 nM
same,Ki,[9],760 nM
[SeH]c1ccc2ccccc2c1,Ki,[8],460 nM
same,Ki,[9],760 nM
O=C(O)CN1C(=O)S/C(=C/c2ccc(Cl)cc2)C1=O,Ki,[10],3100 nM
same,Kis,[11],0.3 µM
same,Ki,[12],> 100000 nM
CS(=O)(=O)Cc1c(Br)c(O)c(O)c(Br)c1Br,Ki,[1],42.8 nM
Cc1ccc2c(c1)C(=O)N(NC(=O)c1ccc(S(N)(=O)=O)cc1)C2=O,Kis,[6],3 nM
same,Kis,[13],84.3 nM
NS(=O)(=O)c1ccc(C(=O)N[C@@H]2O[C@H](CO)[C@H](O)[C@H](O)[C@H]2O)cc1,Ki,[7],0.009 nM
O=C1/C(=C\c2ccc(O)c(CN3CCN(c4ccccc4)CC3)c2)Cc2ccccc21,Ki,[1],51.1 nM
Cc1ccc(/C=C2/SC(=O)N(CC(=O)O)C2=O)cc1,Ki,[10],> 100000 nM
same,Kis,[11],0.3 µM
same,Ki,[12],> 100000 nM
COc1ccc(/C=C2/SC(=O)N(CC(=O)O)C2=O)cc1,Ki,[10],3100 nM
same,Kis,[11],0.3 µM
same,Ki,[12],> 100000 nM
NS(=O)(=O)c1ccc(C(=O)NN2C(=O)c3cc(Cl)c(Cl)cc3C2=O)cc1,Kis,[6],3 nM
Cn1nc(-c2ccccc2)c(/N=N/c2ccc(Br)cc2)c1-c1ccccc1,Ki,[14],1.06 nM
same,Ki,[15],0.68 nM
NS(=O)(=O)c1ccc(C(=O)NN2C(=O)C3CC=CCC3C2=O)cc1 (centres undefined),Kis,[13],84.3 nM
NS(=O)(=O)c1ccc(N2N=C(c3cccs3)CC2c2ccccc2)cc1 (centres undefined),Ki,[16],24.2 nM
same,Ki,[17],80.6 nM
NS(=O)(=O)c1ccc(N/C=C/C(=O)c2ccc3ccccc3c2)cc1,Ki,[18],0.48 nM
same,Ki,[19],> 10000 nM
same,Ki,[8],0.21 nM
same,Ki,[20],6.5 nM
NS(=O)(=O)c1ccc(NCC(=O)N/N=C2\C(=O)N(Cc3ccccc3)c3ccccc32)cc1,Ki,[10],16.4 nM
same,Ki,[21],3 nM
same,Ki,[22],34.3 nM
NS(=O)(=O)c1ccc(N2N=C(c3cccs3)CC2c2ccc(C(F)(F)F)cc2)cc1 (centres undefined),Ki,[16],24.2 nM
same,Ki,[17],37.3 nM
NS(=O)(=O)c1ccc(C(=O)NN2C(=O)c3cccc4cc([N+](=O)[O-])cc(c34)C2=O)cc1,Kis,[6],3 nM
NS(=O)(=O)c1ccc(N/C=C/C(=O)c2ccc(F)cc2)cc1,Ki,[18],0.48 nM
same,Ki,[19],9300 nM
same,Ki,[8],0.21 nM
same,Ki,[20],6.5 nM
NS(=O)(=O)c1ccc(N/C=C/C(=O)c2ccc([N+](=O)[O-])cc2)cc1,Ki,[19],> 10000 nM
same,Ki,[8],0.21 nM
same,Ki,[20],6.5 nM
CCn1nc(-c2ccccc2)c(/N=N/c2ccc(Br)cc2)c1-c1ccccc1,Ki,[14],1.06 nM
same,Ki,[15],0.68 nM
O=C(O)CN1C(=O)S/C(=C/c2ccccc2)C1=O,Kis,[11],0.3 µM
same,Ki,[12],> 100000 nM
NS(=O)(=O)c1ccc(C(=O)NN2C(=O)c3cccc4cccc(c34)C2=O)cc1,Kis,[6],3 nM
Fc1ccc([SeH])cc1,Ki,[8],180 nM
same,Ki,[9],760 nM
COc1ccc(C2CC(c3cccs3)=NN2c2ccc(S(N)(=O)=O)cc2)cc1OC (centres undefined),Ki,[16],24.2 nM
same,Ki,[17],37.3 nM
Cc1ccccc1[SeH],Ki,[9],760 nM
NS(=O)(=O)c1ccc(C(=O)NN2C(=O)c3c(Cl)c(Cl)c(Cl)c(Cl)c3C2=O)cc1,Kis,[6],3 nM
NS(=O)(=O)c1ccc(C(=O)NN2C(=O)c3c(Br)c(Br)c(Br)c(Br)c3C2=O)cc1,Kis,[6],3 nM
COc1cccc(/C=C2/SC(=O)N(CC(=O)O)C2=O)c1,Ki,[10],> 100000 nM
same,Kis,[11],0.3 µM
same,Ki,[12],> 100000 nM
NS(=O)(=O)c1ccc(N/C=C/C(=O)c2ccc(Br)cc2)cc1,Ki,[18],0.48 nM
same,Ki,[19],8500 nM
same,Ki,[8],0.21 nM
same,Ki,[20],6.5 nM
COc1cccc([SeH])c1,Ki,[8],280 nM
same,Ki,[9],760 nM
O=C1/C(=C\c2ccc(O)c(CN3CCN(Cc4ccccc4)CC3)c2)Cc2ccccc21,Ki,[1],51.1 nM
CC(C)(C)c1ccc2c(c1)C(=O)N(NC(=O)c1ccc(S(N)(=O)=O)cc1)C2=O,Kis,[6],3 nM
same,Kis,[13],84.3 nM
COc1ccc([SeH])cc1,Ki,[8],180 nM
same,Ki,[9],760 nM
NS(=O)(=O)c1ccc(N/N=C2\C(=O)Nc3ccccc32)cc1,Ki,[10],21.4 nM
same,Ki,[21],6.5 nM
same,Ki,[12],90.2 nM
same,Ki,[22],34.3 nM
COc1ccc(C2CC(c3ccccc3)=NN2c2ccc(S(N)(=O)=O)cc2)cc1OC (centres undefined),CC50,[2],15000 nM
same,CC50,[3],15000 nM
same,CC50,[4],15000 nM
same,CC50,[5],15000 nM
O=[N+]([O-])c1ccccc1-n1nc(-c2ccccc2)c(/N=N/c2ccc(Br)cc2)c1-c1ccccc1,Ki,[14],1.06 nM
same,Ki,[15],0.68 nM
Brc1ccc(/N=N/c2c(-c3ccccc3)nn(-c3ccc(Br)cc3)c2-c2ccccc2)cc1,Ki,[14],1.06 nM
same,Ki,[15],0.68 nM
[SeH]c1ccccc1,Ki,[8],180 nM
same,Ki,[9],760 nM
COc1ccccc1[SeH],Ki,[9],760 nM
Cc1cccc(C)c1[SeH],Ki,[9],760 nM
COc1ccc(C2CC(c3cccs3)=NN2c2ccc(S(N)(=O)=O)cc2)cc1 (centres undefined),Ki,[16],24.2 nM
same,Ki,[17],37.3 nM
Cc1ccc(C2CC(c3cccs3)=NN2c2ccc(S(N)(=O)=O)cc2)cc1 (centres undefined),Ki,[16],24.2 nM
same,Ki,[17],37.3 nM
NS(=O)(=O)c1ccc(C(=O)NN2C(=O)c3nccnc3C2=O)cc1,Kis,[13],84.3 nM
O=c1c2ccccc2nc(SCCN2CCCCC2)n1CCc1ccccc1,Ki,[18],14.2 nM
same,Ki,[19],229 nM
same,Ki,[8],19.3 nM
same,Ki,[23],17.2 nM
COc1ccc(C2CC(c3ccccc3)=NN2c2ccc(S(N)(=O)=O)cc2)c(OC)c1 (centres undefined),CC50,[2],15000 nM
same,CC50,[3],15000 nM
same,CC50,[4],15000 nM
same,CC50,[5],15000 nM
Brc1ccc(/N=N/c2c(-c3ccccc3)nn(-c3ccccc3)c2-c2ccccc2)cc1,Ki,[14],1.06 nM
same,Ki,[15],0.68 nM
NS(=O)(=O)c1ccc(CCn2c(SCC(=O)Nc3ccc(Cl)cc3)nc3ccccc3c2=O)cc1,Ki,[18],25.4 nM
COc1ccc(C2CC(c3cccs3)=NN2c2ccc(S(N)(=O)=O)cc2)c(OC)c1 (centres undefined),Ki,[16],24.2 nM
same,Ki,[17],37.3 nM
COc1cc([SeH])cc(OC)c1OC,Ki,[18],> 50000 nM
same,Ki,[19],> 50000 nM
same,Ki,[8],180 nM
same,Ki,[9],> 50000 nM
O=C1/C(=C\c2ccc(O)c(CN3CCN(c4ccc(F)cc4)CC3)c2)Cc2ccccc21,Ki,[1],51.1 nM
O=C(O)CN1C(=O)S/C(=C/c2ccc(Br)cc2)C1=O,Kis,[11],0.3 µM
same,Ki,[12],> 100000 nM
Cc1ccc(-n2nc(-c3ccccc3)c(/N=N/c3ccc(Br)cc3)c2-c2ccccc2)cc1C,Ki,[14],1.06 nM
same,Ki,[15],0.68 nM
COc1ccc(C2CC(c3ccc(Br)cc3)=NN2c2ccc(S(N)(=O)=O)cc2)c(OC)c1 (centres undefined),CC50,[2],15000 nM
same,CC50,[3],15000 nM
same,CC50,[4],15000 nM
same,CC50,[5],15000 nM
COc1ccc(C2CC(c3ccc(Cl)cc3)=NN2c2ccc(S(N)(=O)=O)cc2)c(OC)c1 (centres undefined),CC50,[2],15000 nM
same,CC50,[3],15000 nM
same,CC50,[4],15000 nM
same,CC50,[5],15000 nM
NS(=O)(=O)c1ccc(N=C2C(=O)Nc3ccccc32)cc1,Ki,[10],13.9 nM
same,Ki,[21],3 nM
same,Ki,[22],34.3 nM
COc1ccc(C2CC(c3ccc(F)cc3)=NN2c2ccc(S(N)(=O)=O)cc2)cc1OC (centres undefined),CC50,[2],15000 nM
same,CC50,[3],15000 nM
same,CC50,[4],15000 nM
same,CC50,[5],15000 nM
NS(=O)(=O)c1ccc(N2N=C(c3cccs3)CC2c2cccs2)cc1 (centres undefined),Ki,[16],24.2 nM
same,Ki,[17],37.3 nM
O=C1/C(=C\c2ccc(O)c(CN3CCN(c4ccccc4F)CC3)c2)Cc2ccccc21,Ki,[1],51.1 nM
Brc1ccc(NN=C2C(c3ccccc3)=NN=C2c2ccccc2)cc1,Ki,[14],1.06 nM
same,Ki,[15],0.68 nM
O=C(O)CN1C(=O)S/C(=C/c2ccccc2Cl)C1=O,Kis,[11],0.3 µM
same,Ki,[12],> 100000 nM
CS(=O)(=O)Cc1cc(O)c(O)c(Br)c1Br,Ki,[1],42.8 nM
NS(=O)(=O)c1ccc(N2N=C(c3cccs3)CC2c2ccc(Cl)cc2)cc1 (centres undefined),Ki,[16],24.2 nM
same,Ki,[17],37.3 nM
NS(=O)(=O)c1ccc(N2N=C(c3cccs3)CC2c2ccc(F)cc2)cc1 (centres undefined),Ki,[16],24.2 nM
same,Ki,[17],37.3 nM
Cc1ccc(C)c(-n2nc(-c3ccccc3)c(/N=N/c3ccc(Br)cc3)c2-c2ccccc2)c1,Ki,[14],1.06 nM
same,Ki,[15],0.68 nM
COc1ccc(C2CC(c3ccc(F)cc3)=NN2c2ccc(S(N)(=O)=O)cc2)c(OC)c1 (centres undefined),CC50,[2],15000 nM
same,CC50,[3],15000 nM
same,CC50,[4],15000 nM
same,CC50,[5],15000 nM
Cn1c(-c2ccc(Cl)cc2)nc2cc(C(N)=O)ccc21,IC50,[24],> 360 nM
same,IC50,[25],> 360 nM
same,IC50,[26],> 360 nM
same,IC50,[27],> 360 nM
